Assay [1] has as its system GP2D (KRAS G12D) cells. The experiment in a line: 2D cell viability assay (CellTiter-Glo). The class given is cell-based. The note with it: GP2d, 96 h, 4 days. In a few lines:
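Viability was read by CellTiter-Glo after 4 days at 37 °C of 2D culture of KRAS G12D GP2D cells (1000/well, RPMI, 10% FBS) on pre-spotted threefold compound dilutions. EC50 was fitted with a sigmoidal dose-response model as the point of half-maximal luminescence loss.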
A general note: ATP-based viability assays read luminescence as a measure of living cells.

The target of assay [2] is GDP-loaded KRAS G12D (Homo sapiens (Human), UniProt P01116, G12D). Briefly: KRAS G12D (GDP) biochemical assay (TR-FRET probe displacement). The class given is binding. The note with it: 2 hours. The gist of the method: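 TR-FRET probe displacement: 1:3 DMSO serial dilutions pre-incubated 30 min with GDP-bound KRAS G12D, followed by Eu-streptavidin/probe for 2 h at room temperature (Hepes pH 7.4, NaCl, MgCl2, Tween-20 buffer). IC50 defined as concentration halving TR-FRET ratio, from sigmoidal dose-response fit.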
Chain of GDP-loaded KRAS G12D (P01116-2 other isoform, or with tags, fused parts or gaps G12D): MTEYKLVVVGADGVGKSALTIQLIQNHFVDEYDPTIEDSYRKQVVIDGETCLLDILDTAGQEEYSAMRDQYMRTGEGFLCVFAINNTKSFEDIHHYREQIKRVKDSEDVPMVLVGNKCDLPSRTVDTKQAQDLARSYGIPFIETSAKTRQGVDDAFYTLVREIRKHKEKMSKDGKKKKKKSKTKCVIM

Assay [3] deals with AsPC-1 (KRAS G12D) cells. Briefly: 3D cell viability assay (spheroids, CellTiter-Glo 3D). The class given is cell-based. Particulars: Homo sapiens, ASPC1, 96 h, AsPC-1 cells, 3D spheroids, 4 days. As to the method: Example C. 3D Cell Viability Assay
Compounds were tested in a 384-well format for their ability to inhibit the viability of AsPC-1 (KRAS G12D) cells in 3D assays. On day 0, 1000 cells/well (80 μL volume per well) in DMEM with 10% FBS, and Penicillin-Streptomycin-Glutamine were plated in 384-well Ultra-Low Attachment Spheroid Microplates (Corning, Catalog #3830) on the BioTEK EL406 liquid dispenser with a 5 μL dispensing cassette (BioTek 7170011). The plates were incubated at 37° C., 5% CO2 for 3 days to allow spheroid formation. On day 3, compounds were serially diluted (1:3) in DMSO. The Biomek FX was used to add 400 nL of test molecule per well. The plates were incubated at 37° C., 5% CO2 for 4 days before addition of CellTiter-Glo 3D (Promega, Catalog #9683) reagent and measurement of luminescence signal. EC50 values were defined as the compound concentration that causes a 50% decrease in luminescence signal and were calculated using a sigmoidal dose-response model to generate curve fits.

Drawing on patent US20230339981A1, “KRAS G12D MODULATING COMPOUNDS” (priority 2022, published 2023), this text covers EC50 and IC50 for 13 molecules.

`C#Cc1c(F)ccc2cc(O)cc(-c3nc4c5c(nc(OC[C@@]67CCCN6[C@H](COC(=O)N6CCCCCC6)CC7)nc5c3F)N3C[C@H]5CC[C@H](N5)[C@H]3CO4)c12` [Example 38, ((3S,7aS)-7a-((((5aS,6S,9R)-2-(8-ethynyl-7-fluoro-3-hydroxynaphthalen-1-yl)-1-fluoro-5a,6,7,8,9,10-hexahydro-5H-4-oxa-3,10a,11,13,14-pentaaza-6,9-methanonaphtho[1,8-ab]heptalen-12-yl)oxy)methyl)hexahydro-1H-pyrrolizin-3-yl)methyl azepane-1-carboxylate]: the half-maximal effective concentration (EC50) (commonly the concentration at which the effect is half-maximal) in assay [1] turned out to be 28 nM; in assay [3], 47 nM. Further, the IC50 (as a rule, the concentration needed to halve the response being measured) in assay [2] turned out to be 0.3 nM.
As for `C#Cc1c(F)ccc2cc(O)cc(-c3nc4c5c(nc(OC[C@@]67CCCN6[C@H](COC(=O)N(C)C)CC7)nc5c3F)N3C[C@H]5CC[C@H](N5)[C@H]3CO4)c12` [Example 39, ((3S,7aS)-7a-((((5aS,6S,9R)-2-(8-ethynyl-7-fluoro-3-hydroxynaphthalen-1-yl)-1-fluoro-5a,6,7,8,9,10-hexahydro-5H-4-oxa-3,10a,11,13,14-pentaaza-6,9-methanonaphtho[1,8-ab]heptalen-12-yl)oxy)methyl)hexahydro-1H-pyrrolizin-3-yl)methyl dimethylcarbamate], the half-maximal effective concentration (EC50) in assay [1] was 48 nM; in assay [3], 96 nM. Besides, the IC50 in assay [2] was determined as 0.4 nM.
Take `Oc1cc(-c2nc3c4c(nc(OC[C@@]56CCCN5C[C@H](F)C6)nc4c2F)N2C[C@H]4CC[C@H](N4)[C@H]2CC3)c2c(F)c(Cl)ccc2c1` [Example 40, 6-chloro-5-fluoro-4-((5aR,6S,9R)-1-fluoro-12-(((2R,7aS)-2-fluorotetrahydro-1H-pyrrolizin-7a(5H)-yl)methoxy)-4,5,5a,6,7,8,9,10-octahydro-3,10a,11,13,14-pentaaza-6,9-methanonaphtho[1,8-ab]heptalen-2-yl)naphthalen-2-ol]: the values for the 50% effective concentration (EC50) in assay [1] and in assay [3] were 19 nM and 74 nM, respectively. Moreover, the IC50 in assay [2] amounted to 2 nM.
Turning to `Oc1cc(-c2nc3c4c(nc(OC[C@@]56CCCN5C[C@H](F)C6)nc4c2F)N2C[C@H]4CC[C@H](N4)[C@H]2CC3)c2c(OC(F)(F)F)c(F)ccc2c1` [Example 41, 6-fluoro-4-((5aR,6S,9R)-1-fluoro-12-(((2R,7aS)-2-fluorotetrahydro-1H-pyrrolizin-7a(5H)-yl)methoxy)-4,5,5a,6,7,8,9,10-octahydro-3,10a,11,13,14-pentaaza-6,9-methanonaphtho[1,8-ab]heptalen-2-yl)-5-(trifluoromethoxy)naphthalen-2-ol], the EC50 was found to be 3 nM in assay [1] and 8 nM in assay [3]. Further, the 50% inhibitory concentration (IC50) in assay [2] came out at 0.6 nM.
On to `Oc1cc(-c2nc3c4c(nc(OC[C@@]56CCCN5C[C@H](F)C6)nc4c2F)N2C[C@H]4CC[C@H](N4)[C@H]2CO3)c2c(OC3CC3)c(F)ccc2c1` [Example 42, 5-cyclopropoxy-6-fluoro-4-((5aS,6S,9R)-1-fluoro-12-(((2R,7aS)-2-fluorotetrahydro-1H-pyrrolizin-7a(5H)-yl)methoxy)-5a,6,7,8,9,10-hexahydro-5H-4-oxa-3,10a,11,13,14-pentaaza-6,9-methanonaphtho[1,8-ab]heptalen-2-yl)naphthalen-2-ol], for which the EC50 in assay [1] was 28 nM; in assay [3], 95 nM. This molecule also gave a half-maximal inhibitory concentration (IC50) in assay [2] of 2 nM.
Take `C#Cc1c(F)ccc2cc(O)cc(-c3nc4c5c(nc(OC[C@@]67CCCN6[C@H](Cn6ccnn6)CC7)nc5c3F)N3C[C@H]5CC[C@H](N5)[C@H]3CO4)c12` [Example 49, 4-((5aS,6S,9R)-12-(((3S,7aS)-3-((1H-1,2,3-triazol-1-yl)methyl)tetrahydro-1H-pyrrolizin-7a(5H)-yl)methoxy)-1-fluoro-5a,6,7,8,9,10-hexahydro-5H-4-oxa-3,10a,11,13,14-pentaaza-6,9-methanonaphtho[1,8-ab]heptalen-2-yl)-5-ethynyl-6-fluoronaphthalen-2-ol]: the half-maximal effective concentration (EC50) in assay [1] is 37 nM; in assay [3], 140 nM. The molecule also had a 50% inhibitory concentration (IC50) in assay [2] of 0.2 nM.
With `C#Cc1c(F)ccc2cc(O)cc(-c3cc4c5c(nc(OC[C@@]67CCCN6C[C@H](F)C7)nc5c3F)N3C[C@H]5CC[C@H](N5)[C@H]3CC4)c12` [Example 52, 5-ethynyl-6-fluoro-4-((1S,4R,14aR)-10-fluoro-8-(((2R,7aS)-2-fluorotetrahydro-1H-pyrrolizin-7a(5H)-yl)methoxy)-1,2,3,4,5,13,14,14a-octahydro-1,4-epiminoazepino[1′,2′:1,7]azepino[2,3,4-de]quinazolin-11-yl)naphthalen-2-ol], the half-maximal effective concentration (EC50) in assay [1] came to 1 nM; in assay [3], 7 nM. This molecule returned an IC50 in assay [2] of 0.1 nM.
In the case of `C#Cc1c(F)ccc2cc(O)cc(-c3nc4c5c(nc(OC[C@@]67CCCN6C[C@H](F)C7)nc5c3F)N3C[C@H]5CC[C@H](N5)[C@H]3CCC4)c12` [Example 75, 5-ethynyl-6-fluoro-4-((6aR,7S,10R)-1-fluoro-13-(((2R,7aS)-2-fluorotetrahydro-1H-pyrrolizin-7a(5H)-yl)methoxy)-5,6,6a,7,8,9,10,11-octahydro-4H-3,11a,12,14,15-pentaaza-7,10-methanocyclohepta[4,5]cycloocta[1,2,3-de]naphthalen-2-yl)naphthalen-2-ol], the half-maximal effective concentration (EC50) in assay [1] came out at 0.17 nM; in assay [3] it was 0.5 nM. The molecule also had a half-maximal inhibitory concentration (IC50) in assay [2] of 0.06 nM.
With `C#Cc1c(F)ccc2cccc(-c3nc4c5c(nc(OC[C@@]67CCCN6C[C@H](F)C7)nc5c3F)N3C[C@H]5CC[C@H](N5)[C@H]3CCC4)c12` [Example 76, (6aR,7S,10R)-2-(8-ethynyl-7-fluoronaphthalen-1-yl)-1-fluoro-13-(((2R,7aS)-2-fluorotetrahydro-1H-pyrrolizin-7a(5H)-yl)methoxy)-5,6,6a,7,8,9,10,11-octahydro-4H-3,11a,12,14,15-pentaaza-7,10-methanocyclohepta[4,5]cycloocta[1,2,3-de]naphthalene], the results for the EC50 in assay [1] and in assay [3] were 4 nM and 27 nM, respectively. The concentration for half-maximal inhibition (IC50) in assay [2] amounted to 0.1 nM.
In the case of `C#Cc1c(F)ccc2cc(O)cc(-c3nc4c5c(nc(OCC6(CN7CCC[Si](C)(C)CC7)CC6)nc5c3F)N3C[C@H]5CC[C@H](N5)[C@H]3CC4)c12` [Example 78, 4-((5aR,6S,9R)-12-((1-((4,4-dimethyl-1,4-azasilepan-1-yl)methyl)cyclopropyl)methoxy)-1-fluoro-4,5,5a,6,7,8,9,10-octahydro-3,10a,11,13,14-pentaaza-6,9-methanonaphtho[1,8-ab]heptalen-2-yl)-5-ethynyl-6-fluoronaphthalen-2-ol], the figures for the EC50 in assay [1] and in assay [3] were 3.9 nM and 15 nM, respectively. This molecule displayed a 50% inhibitory concentration (IC50) in assay [2] of 0.2 nM.
As to `C[C@H]1C[C@@H]2[C@@H]3CC[C@H](CN2c2nc(OC[C@@]45CCCN4C[C@H](F)C5)nc4c(F)c(-c5cc(O)cc6ccc(F)c(F)c56)nc1c24)N3` [Example 81, 5,6-difluoro-4-((4S,5aR,6S,9R)-1-fluoro-12-(((2R,7aS)-2-fluorotetrahydro-1H-pyrrolizin-7a(5H)-yl)methoxy)-4-methyl-4,5,5a,6,7,8,9,10-octahydro-3,10a,11,13,14-pentaaza-6,9-methanonaphtho[1,8-ab]heptalen-2-yl)naphthalen-2-ol], the EC50 in assay [1] was 2.8 nM; in assay [3], 18 nM. The same molecule showed an IC50 in assay [2] of 0.2 nM.
As to `C#Cc1c(F)ccc2cccc(-c3nc4c5c(nc(OC[C@@]67CCCN6C[C@H](F)C7)nc5c3F)N3C[C@H]5CC[C@H](N5)[C@@H]3[C@@H](C)[C@H]4C)c12` [Example 86, (4R,5S,5aS,6S,9R)-2-(8-ethynyl-7-fluoronaphthalen-1-yl)-1-fluoro-12-(((2R,7aS)-2-fluorotetrahydro-1H-pyrrolizin-7a(5H)-yl)methoxy)-4,5-dimethyl-4,5,5a,6,7,8,9,10-octahydro-3,10a,11,13,14-pentaaza-6,9-methanonaphtho[1,8-ab]heptalene], the EC50 in assay [1] stood at 14.4 nM; in assay [3], 64 nM. Moreover, in assay [2], the concentration for half-maximal inhibition (IC50) worked out at 0.5 nM.
As for `C#Cc1c(F)ccc2cc(O)cc(-c3nc4c5c(nc(OC[C@@]67CCCN6C[C@H](F)C7)nc5c3F)N3C[C@H]5CC[C@H](N5)[C@@H]3[C@@H](C)[C@H]4C)c12` [Example 87, 5-ethynyl-6-fluoro-4-((4R,5S,5aS,6S,9R)-1-fluoro-12-(((2R,7aS)-2-fluorotetrahydro-1H-pyrrolizin-7a(5H)-yl)methoxy)-4,5-dimethyl-4,5,5a,6,7,8,9,10-octahydro-3,10a,11,13,14-pentaaza-6,9-methanonaphtho[1,8-ab]heptalen-2-yl)naphthalen-2-ol], the EC50 came to 0.2 nM in assay [1] and 0.3 nM in assay [3]. In assay [2], the IC50 is 0.4 nM.
